From publication PMC11374673, “Discovery of isoquinoline sulfonamides as allosteric gyrase inhibitors with activity against fluoroquinolone-resistant bacteria” (Nature Chemistry, 2024) come the findings set out here.

Each structure is given as a SMILES string.

The test addresses (UniProt Q2FCU6). Briefly: Gyrase supercoiling inhibition. Particulars: read-out: IC50 supercoiling, A. baumannii gyrase. The test is classed as biochemical, Acinetobacter baumannii. The protocol: Of this stock solution, 27 µl was aliquoted for each reaction in 1.5 ml Eppendorf tubes and supplemented with 0.6 µl of the appropriate compound dilution or corresponding solvent with a final DMSO concentration of 2%. The reactions were started with 3 µl of enzyme (1 U for WT gyrase retrieved from Inspiralis Limited or 25–30 nM gyrase variants purified in house) in dilution buffer (50 mM Tris–HCl (pH 7.5), 100 mM KCl, 2 mM DTT, 1 mM EDTA and 50% (wt/vol) glycerol) for a final volume of 30 µl. Reactions were run at 37 °C for 30 min and stopped with the addition of 30 µl STEB buffer (40% (wt/vol) sucrose, 100 mM Tris–HCl pH 8, 100 mM EDTA, 0.5 mg ml^−1 bromophenol blue) and 30 µl of a chloroform:isoamyl alcohol solution (24:1 vol/vol). After brief vortexing and centrifugation at 2,300g for 1 min, 20 µl of the aqueous phase was loaded onto 1% (wt/vol) agarose gels in TAE (Tris–acetate […]) gel. The gels were run at 85 V for 2 h followed by staining (15 min) in 1 µg ml^−1 ethidium bromide and destaining (5–10 min) in water. DNA was visualized (602/50, UV Trans, auto optimal exposure) with a ChemiDoc MP (Bio-Rad Laboratories Inc., equipped with ImageLab Touch Software v2.0.0.27) and the percentage of supercoiled DNA relative to the total amount material per lane was determined with ImageLab 6.1 software (Bio-Rad Laboratories Inc.) or ImageJ[47] software. […]

`O=S(=O)(NC[C@@H]1CC[C@H](c2ccc(-c3cccnc3)cc2)N1)c1cccc2cnccc12` [LEI-800]: the IC50 turned out to be 103 nM.
